Tested on: Trichoplusia ni (cabbage looper) larvae
Assay: In-planta insecticidal efficacy (sprayed green cabbage plants, larval survival, Abbott and Colby formulas) against Trichoplusia ni
Assay type: in vivo
Conditions: Abbott formula vs 10% isopropanol control; Exirel at […] ([…] cyantraniliprole), aliphatic acids at 750 ppm
Description: Water and 10% isopropanol were tested as control treatments.
Green cabbage plants (Brassica oleracea var. capitate, Danish Ballhead cultivar) were grown from seed (available from West Coast Seeds, Delta, BC, Canada) in potting soil for 4-6 weeks in a pest-free indoor growing environment. At between 4-6 weeks of age, each cabbage plant was sprayed with 20 mL of treatment solution using a pressurized CO2 sprayer from approximately 18 inches above the plant, and allowed to dry.
(§1) While for SF<1, antagonism is present and for SF=1, the efficacy of the compounds is merely additive.
Cyantraniliprole was provided as the active ingredient in Exirel® insecticide (available from FMC Corp., Philadephia, PA, USA), and is present as 10% w/w of the Exirel® insecticide product formulation.

| SMILES | Observed Efficacy, W (%) |
| --- | --- |
| CCC/C=C/C(=O)[O-].[K+] [trans-2-Hexenoic acid, potassium salt] | 11.3% |
| C=CCCCCCCCC(=O)O [9-Decenoic acid, 9-decenoic acid] | −0.4% |
| CCCCCCCCCC(=O)[O-].[K+] [Potassium Caprate] | 5.5% |
| CC/C=C/CC(=O)[O-].[K+] [trans-3-Hexenoic acid, potassium salt] | 7.1% |

Same assay, conditions: in-planta, T. ni larvae on sprayed cabbage; Exirel at […] ([…] cyantraniliprole), aliphatic acids at 750 ppm, 10% isopropanol

| SMILES | Survival Rate (%) |
| --- | --- |
| CCC/C=C/C(=O)[O-].[K+] [trans-2-Hexenoic acid, potassium salt] | 73.6% |
| C=CCCCCCCCC(=O)O [9-Decenoic acid, 9-decenoic acid] | 65.8% |
| CCCCCCCCCC(=O)[O-].[K+] [Potassium Caprate] | 69.7% |
| CC/C=C/CC(=O)[O-].[K+] [trans-3-Hexenoic acid, potassium salt] | 70.8% |
| CCCCCCC/C=C/C(=O)O [Trans-2-decenoic acid, trans-2-decenoic acid] | 66.1% |

Tested on: Fusarium oxysporum
Assay: Synergistic Growth Inhibition Assay (MIC / FIC index, 96-well microtiter, resazurin) against Fusarium oxysporum
Assay type: cell-based
Conditions: Compound B tested alone; 24 hour incubation
Description: In the Synergistic Growth Inhibition Assay used in accordance with some embodiments of the present disclosure, multiple dilutions of combinations of pesticidal active ingredient and at least one C6-C10 saturated or unsaturated aliphatic acid agents are tested in individual cells for inhibitory activity against a target pest or pathogenic organism. […] In a further such embodiment, the combinations of pesticidal active ingredient and C6-C10 (or alternatively C11 or C12) saturated or unsaturated aliphatic acid agents may be tested in increasing concentrations.
Thus, each well of the microtiter plate is a unique combination of the two agents, at which inhibitory efficacy of the combination against the target pest or pathogen can be determined.
In one embodiment according to the present disclosure, for each row of microtiter cells in the Synergistic Growth Inhibition Assay, the FIC index is calculated from the lowest concentration of the pesticidal active ingredient and one or more C6-C10 saturated or unsaturated aliphatic acid agents necessary to inhibit growth of a target pest or pathogen. The FIC of each component is derived by dividing the concentration of the agent present in that well of the microtiter plate by the minimal inhibitory concentration (MIC) needed of that agent alone to inhibit growth of the target pest or pathogen. […] The FIC index is calculated for each row as follows: […]

| SMILES | MIC (B) |
| --- | --- |
| CCCCCC(=O)O [Hexanoic acid] | 290 µg/mL |
| C/C=C/C=C/C(=O)O [(2E,4E)-2,4-hexadienoic acid] | 125 µg/mL |

Tested on: Trichoplusia ni (cabbage looper) larvae
Assay: In-planta insecticidal efficacy (sprayed green cabbage plants, larval survival, Abbott and Colby formulas) against Trichoplusia ni
Assay type: in vivo
Conditions: Table 71, Coragen […] (0.105 ppm chlorantraniliprole), aliphatic acid 750 ppm, alone or combined

| SMILES | Survival Rate |
| --- | --- |
| CCC/C=C/C(=O)O [Trans-2-hexenoic acid, trans-2-hexenoic acid] | 56.50% |
| CC/C=C/CC(=O)O [Trans-3-hexenoic acid, trans-3-hexenoic acid] | 64.50% |

Same assay, conditions: Table 71, Coragen […], aliphatic acid 750 ppm, alone or combined, Abbott formula

| SMILES | Observed Efficacy, W |
| --- | --- |
| CCC/C=C/C(=O)O [Trans-2-hexenoic acid, trans-2-hexenoic acid] | 18.71% |
| CC/C=C/CC(=O)O [Trans-3-hexenoic acid, trans-3-hexenoic acid] | 7.19% |

Same assay, conditions: Table 72, Coragen […] (0.104 ppm chlorantraniliprole), aliphatic acid 750 ppm, alone or combined

| SMILES | Survival Rate |
| --- | --- |
| O=C(O)CCCCCCCCCO [10-hydroxydecanoic acid] | 73.50% |
| CCCCC/C=C/C(=O)O [Trans-2-octenoic acid, trans-2-octenoic acid] | 77.00% |
| CCCCCCC/C=C/C(=O)O [Trans-2-decenoic acid, trans-2-decenoic acid] | 81.00% |

Same assay, conditions: Table 72, Coragen […], aliphatic acid 750 ppm, alone or combined, Abbott formula

| SMILES | Observed Efficacy, W |
| --- | --- |
| O=C(O)CCCCCCCCCO [10-hydroxydecanoic acid] | 0.00% |
| CCCCC/C=C/C(=O)O [Trans-2-octenoic acid, trans-2-octenoic acid] | 0.00% |
| CCCCCCC/C=C/C(=O)O [Trans-2-decenoic acid, trans-2-decenoic acid] | 0.00% |

Same assay, conditions: Table 73, Coragen […] (0.104 ppm chlorantraniliprole), aliphatic acid 750 ppm, alone or combined

| SMILES | Survival Rate |
| --- | --- |
| O=C(O)CCCCCCCCCO [10-hydroxydecanoic acid] | 40.50% |

Same assay, conditions: Table 73, Coragen […], aliphatic acid 750 ppm, alone or combined, Abbott formula

| SMILES | Observed Efficacy, W |
| --- | --- |
| O=C(O)CCCCCCCCCO [10-hydroxydecanoic acid] | 36.72% |

Tested on: Trichoplusia ni (cabbage looper) larvae
Assay: In-vitro insecticidal efficacy (mortality and bioactivity, treated artificial diet, Abbott and Colby formulas) against Trichoplusia ni
Assay type: in vivo
Conditions: Table 69A; Coragen 0.2525 ppm (0.04646 ppm chlorantraniliprole), aliphatic acid (salt) 500 ppm, alone or combined; in-vitro
Description: An artificial diet suitable for Trichoplusia ni (cabbage looper caterpillar) was prepared from a commercially available general purpose lepidoptera artificial diet premix (such as General Purpose Lepidoptera Diet available from Frontier Scientific Services, Newark, DE) and mixed in a heated liquid agar media (0.022 g agar per ml of water). The liquid artificial diet and agar media was then used to fill each well of a transparent 96-well treatment plate with 200 μL of the artificial diet and agar media, which was allowed to solidify at room temperature and stored at approximately 4 C.
A 20 μL treatment sample of each treatment formulation was then placed on top of the solidified artificial diet media in a well of a 96 well plate and allowed to dry overnight.
(§2) The following day, one neonate Trichoplusia ni (cabbage looper) larva (hatched from eggs obtained from the Benzon Research, Inc. of Carlisle, PA, USA) was added to each well of the plate, after which the wells were sealed with a perforated transparent film, allowing air and moisture exchange. The plates were kept in a suitable regulated indoor incubation environment and the larvae were allowed to feed on the treatment overlaid diet/agar media for 5 days. […] Each experiment contained 8 replicates (larvae cells) for each treatment.
as §1
as §2, with “such as available” for “obtained”, “from” for “from the”
as §1

| SMILES | Survival Rate (100-mortality) |
| --- | --- |
| CCCCCCCC(O)CC(=O)O (stereo not drawn) [3-hydroxdecanoic acid] | 100.00% |

Same assay, conditions: Table 69A; Coragen 0.2525 ppm, aliphatic acid (salt) 500 ppm, alone or combined; Abbott formula

| SMILES | Observed Efficacy (mortality), W |
| --- | --- |
| CCCCCCCC(O)CC(=O)O (stereo not drawn) [3-hydroxdecanoic acid] | 0.00% |

Same assay, conditions: Table 69B; Coragen 0.2525 ppm (0.04646 ppm chlorantraniliprole), aliphatic acid (salt) 500 ppm, alone or combined; in-vitro

| SMILES | Survival Rate (100-(mortality + stunting)) |
| --- | --- |
| O=C(O)CCCCCCCCCO [10-hydroxydecanoic acid] | 75.00% |
| CCCC(C)CC(=O)O (stereo not drawn) [3-methylhexanoic acid] | 83.33% |
| C/C=C/C=C/C(=O)[O-].[K+] [(2E,4E)-2,4 hexadienoic acid potassium salt] | 95.83% |
| O=C(O)CCCCCCCCCCCO [12-hydroxydodecanoic acid] | 91.67% |
| CCCCCCCC/C=C/C(=O)O [trans-2-undecenoic acid] | 87.50% |
| CCCCCCCCCC(=O)O [Decanoic acid] | 83.33% |
| CCCCCCCCCCCC(=O)O [Dodecanoic acid] | 79.17% |
| CCCCCC(=O)O [Hexanoic acid] | 87.50% |
| CCCCC/C=C/C(=O)O [Trans-2-octenoic acid, trans-2-octenoic acid] | 70.83% |
| C=CCCCCCCCC(=O)O [9-Decenoic acid, 9-decenoic acid] | 91.67% |
| CCCCCC/C=C/C(=O)O [trans-2-nonenoic acid] | 75.00% |
| CCCCCCC(O)C(=O)O (stereo not drawn) [2-hydroxyoctanoic acid] | 100.00% |
| CCCCCCCCC(C)C(=O)O (stereo not drawn) [2-methyldecanoic acid] | 87.50% |
| CC/C=C\CC(=O)O [cis-3-hexenoic acid] | 83.33% |
| CCCCCCC(C)C(=O)O (stereo not drawn) [2-methyloctanoic acid] | 95.83% |
| C=CCCCC(=O)O [5-hexenoic acid] | 100.00% |

| SMILES | Survival Rate (100-(mortality + stunting)) |
| --- | --- |
| CCC(C)CCC(=O)O (stereo not drawn) [4-methylhexanoic acid] | 100.00% |
| CCC/C=C/C(=O)O [Trans-2-hexenoic acid, trans-2-hexenoic acid] | 91.67% |
| C/C=C/C=C/C(=O)O [(2E,4E)-2,4 hexadienoic acid] | 79.17% |
| CCCCCCC/C=C/C(=O)O [Trans-2-decenoic acid, trans-2-decenoic acid] | 79.17% |
| CCCCCCC(=O)O [Heptanoic acid] | 91.67% |
| CCCCC(O)C(=O)O (stereo not drawn) [2-hydroxyhexanoic acid] | 91.67% |
| CCCCC=CCC(=O)O [3-Octenoic acid, 3-octenoic acid] | 83.33% |
| CCCCCCCCC(=O)O [Nonanoic acid] | 95.83% |
| CCC/C=C/C(=O)[O-].[K+] [trans-2-hexenoic acid potassium salt] | 91.67% |
| CCCCC(CC)C(=O)O (stereo not drawn) [2-ethylhexanoic acid] | 95.83% |
| CC/C=C/CC(=O)O [Trans-3-hexenoic acid, trans-3-hexenoic acid] | 91.67% |
| CCCC/C=C/CC(=O)O [trans-3-octenoic acid] | 83.33% |
| CCCCCCC(C)CC(=O)O (stereo not drawn) [3-methylnonanoic acid] | 79.17% |
| CCCCCCCC(O)CC(=O)O (stereo not drawn) [3-hydroxdecanoic acid] | 87.50% |
| CC(O)CC(=O)O (stereo not drawn) [3-Hydroxybutyric acid, 3-hydroxybutyric acid] | 95.83% |

Same assay, conditions: Table 69B; bioactivity = mortality + growth stunting; Coragen 0.2525 ppm, aliphatic acid (salt) 500 ppm, alone or combined; Abbott formula

| SMILES | Observed Efficacy (bioactivity), W |
| --- | --- |
| CCCCCCCC(O)CC(=O)O (stereo not drawn) [3-hydroxdecanoic acid] | 0.00% |

Same assay, conditions: Table 70B; Coragen 0.505 ppm (0.09292 ppm chlorantraniliprole), aliphatic acid (salt) 500 ppm, alone or combined; in-vitro

| SMILES | Survival Rate (100-(mortality + stunted)) |
| --- | --- |
| C/C=C/C=C/C(=O)[O-].[K+] [(2E,4E)-2,4 hexadienoic acid potassium salt] | 70.83% |
| CCCCCC(=O)O [Hexanoic acid] | 100% |
| CCCCC/C=C/C(=O)O [Trans-2-octenoic acid, trans-2-octenoic acid] | 87.50% |
| CCCC=CCC(=O)O [3-heptenoic acid] | 95.83% |
| CCCCCC/C=C/C(=O)O [trans-2-nonenoic acid] | 100% |
| CCCCCCCC(=O)O [Octanoic acid] | 95.83% |
| CCCCCC=CCC(=O)O [3-nonenoic acid] | 95.83% |
| CCCCCCCCC(=O)O [Nonanoic acid] | 62.50% |
| CCC/C=C/C(=O)[O-].[K+] [trans-2-hexenoic acid potassium salt] | 83.33% |

— patent US20240389581A1, “SYNERGISTIC PESTICIDAL COMPOSITIONS AND METHODS FOR DELIVERY OF INSECTICIDAL ACTIVE INGREDIENTS” (TERRAMERA, INC., priority 2021, published 2024)
